Data from patent publication US20070093520A1, “Method of treatment of diarrhea-predominant irritable bowel syndrome in a subject” (priority 2005, published 2007).

Test system: diarrhea-predominant IBS subjects
Experiment: 3007 Study: open-label 52-week safety study, adverse events and withdrawals
Conditions: Overall

Cc1nccn1C[C@H]1CCc2c(c3cccc4c3n2CCC4)C1=O [cilansetron, (R)-(−)-4,5,6,8,9,10-hexahydro-10-[(2-methyl-1H-imidazol-1-yl)methyl]-11H-pyrido-[3,2,1-jk]-carbazol-11-one]
TEAE: Sexual Desire Disorders: 1 (<1%) n (%) | TEAE: Sick Sinus Syndrome: 1 (<1%) n (%) | TEAE: Sinus Arrhythmia: 1 (<1%) n (%) | TEAE: Sinus Congestion: 8 (1%) n (%) | TEAE: Sinus Headache: 3 (<1%) n (%) | TEAE: Sinusitis Acute NOS: 1 (<1%) n (%) | TEAE: Sinusitis NOS: 37 (7%) n (%) | TEAE: Site Specific Injuries NEC: 6 (1%) n (%) | TEAE: Skeletal and Cardiac Muscle Analyses: 27 (5%) n (%) | TEAE: Skin Disorder NOS: 1 (<1%) n (%) | TEAE: Skin Fungal Infection NOS: 1 (<1%) n (%) | TEAE: Skin Infection NOS: 1 (<1%) n (%) | TEAE: Skin Injuries and Mechanical Dermatoses: 3 (<1%) n (%) | TEAE: Skin Lesion NOS: 3 (<1%) n (%) | TEAE: Skin Neoplasms Benign: 1 (<1%) n (%) | TEAE: Skin Neoplasms Malignant and Unspecified (Excl Melanoma): 6 (1%) n (%) | TEAE: Skin Structures and Soft Tissue Infections: 3 (<1%) n (%) | TEAE: Skin Ulcer: 1 (<1%) n (%) | TEAE: Skin and Subcutaneous Tissue Disorders: 39 (7%) n (%) | TEAE: Skin and Subcutaneous Tissue Ulcerations: 1 (<1%) n (%) | TEAE: Sleep Apnoea Syndrome: 2 (<1%) n (%) | TEAE: Sleep Apnoeas: 2 (<1%) n (%) | TEAE: Social Circumstances: 1 (<1%) n (%) | TEAE: Soft Tissue Disorders NEC: 2 (<1%) n (%) | TEAE: Soft Tissue Neoplasms Benign NEC: 3 (<1%) n (%) | TEAE: Somnolence: 2 (<1%) n (%) | TEAE: Speech and Language Abnormalities: 1 (<1%) n (%) | TEAE: Spinal Cord and Nerve Root Disorders NEC: 1 (<1%) n (%) | TEAE: Spondylitic Myelopathy: 1 (<1%) n (%) | TEAE: Spondyloarthropathies: 1 (<1%) n (%) | TEAE: Spondylosis: 1 (<1%) n (%) | TEAE: Staphylococcal Infection NOS: 1 (<1%) n (%) | TEAE: Staphylococcal Infections: 1 (<1%) n (%) | TEAE: Status Epilepticus: 1 (<1%) n (%) | TEAE: Stomach Discomfort: 1 (<1%) n (%) | TEAE: Strabismus: 1 (<1%) n (%) | TEAE: Streptococcal Infection NOS: 1 (<1%) n (%) | TEAE: Streptococcal Infections: 8 (1%) n (%) | TEAE: Stress Fracture: 1 (<1%) n (%) | TEAE: Stress Incontinence: 1 (<1%) n (%) | TEAE: Stress Symptoms: 1 (<1%) n (%) | TEAE: Structural and Other Bile Duct Disorders: 1 (<1%) n (%) | TEAE: Sugar Intolerance (Excl Glucose Intolerance): 1 (<1%) n (%) | TEAE: Suicidal Ideation: 1 (<1%) n (%) | TEAE: Suicidal and Self-Injurious Behaviour: 1 (<1%) n (%) | TEAE: Supraventricular Arrhythmias: 4 (<1%) n (%) | TEAE: Supraventricular Tachycardia: 1 (<1%) n (%) | TEAE: Surgical and Medical Procedures: 2 (<1%) n (%) | TEAE: Sweating Increased: 2 (<1%) n (%) | TEAE: Swelling Face: 1 (<1%) n (%) | TEAE: Tachycardia NOS: 1 (<1%) n (%) | TEAE: Temporomandibular Joint Disorder NOS: 1 (<1%) n (%) | TEAE: Tenderness NOS: 1 (<1%) n (%) | TEAE: Tendon Disorders: 3 (<1%) n (%) | TEAE: Tendonitis: 2 (<1%) n (%) | TEAE: Tension Headaches: 1 (<1%) n (%) | TEAE: Thoracic Cage Fractures and Dislocations: 1 (<1%) n (%) | TEAE: Thrombocytopenia: 1 (<1%) n (%) | TEAE: Thrombocytopenias: 1 (<1%) n (%) | TEAE: Thrombophlebitis Superficial: 1 (<1%) n (%) | TEAE: Thyroid Disorders NEC: 1 (<1%) n (%) | TEAE: Thyroid Hypofunction Disorders: 2 (<1%) n (%) | TEAE: Thyroid Neoplasms: 1 (<1%) n (%) | TEAE: Thyroid Nodule: 1 (<1%) n (%) | TEAE: Tinea Cruris: 1 (<1%) n (%) | TEAE: Tinea Infections: 2 (<1%) n (%) | TEAE: Tinea Pedis: 1 (<1%) n (%) | TEAE: Tinnitus: 1 (<1%) n (%) | TEAE: Tissue Enzyme Analyses NEC: 3 (<1%) n (%) | TEAE: Tongue Coated: 1 (<1%) n (%) | TEAE: Tongue Signs and Symptoms: 1 (<1%) n (%) | TEAE: Tooth Abscess: 7 (1%) n (%) | TEAE: Tooth Disorder NOS: 1 (<1%) n (%) | TEAE: Tooth Impacted: 1 (<1%) n (%) | TEAE: Tooth Infection: 2 (<1%) n (%) | TEAE: Toothache: 3 (<1%) n (%) | TEAE: Total Fluid Volume Decreased: 2 (<1%) n (%) | TEAE: Total Number of Subjects with at Least One TEAE: 437 (82%) n (%) | TEAE: Transient Global Amnesia: 1 (<1%) n (%) | TEAE: Tremor: 2 (<1%) n (%) | TEAE: Tremor (Excl Congenital): 2 (<1%) n (%) | TEAE: Trigger Finger: 1 (<1%) n (%) | TEAE: Triglyceride Analyses: 10 (2%) n (%) | TEAE: Tympanic Membrane Disorder NOS: 1 (<1%) n (%) | TEAE: Tympanic Membrane Disorders (Excl Infections): 1 (<1%) n (%) | TEAE: Umbilical Hernia NOS: 1 (<1%) n (%) | TEAE: Umbilical Hernias: 1 (<1%) n (%) | TEAE: Upper Limb Fractures and Dislocations: 1 (<1%) n (%) | TEAE: Upper Respiratory Tract Infection NOS: 26 (5%) n (%) | TEAE: Upper Respiratory Tract Infections - Pathogen Class Unspecified: 61 (11%) n (%) | TEAE: Upper Respiratory Tract Signs and Symptoms: 7 (1%) n (%) | TEAE: Urinalysis NEC: 16 (3%) n (%) | TEAE: Urinary Abnormalities: 6 (1%) n (%) | TEAE: Urinary Frequency: 3 (<1%) n (%) | TEAE: Urinary Incontinence: 1 (<1%) n (%) | TEAE: Urinary Retention: 1 (<1%) n (%) | TEAE: Urinary Tract Infection NOS: 26 (5%) n (%) | TEAE: Urinary Tract Infections: 29 (5%) n (%) | TEAE: Urinary Tract Lithiasis (Excl Renal): 1 (<1%) n (%) | TEAE: Urinary Tract Signs and Symptoms NEC: 1 (<1%) n (%) | TEAE: Urine Abnormal NOS: 1 (<1%) n (%) | TEAE: Urine Analysis Abnormal NOS: 1 (<1%) n (%) | TEAE: Urine Bilirubin Increased: 1 (<1%) n (%) | TEAE: Urine Ketone Body Present: 5 (<1%) n (%) | TEAE: Urine Leukocyte Esterase Positive: 5 (<1%) n (%) | TEAE: Urobilin Urine Present: 1 (<1%) n (%) | TEAE: Urticaria NOS: 3 (<1%) n (%) | TEAE: Urticarias: 3 (<1%) n (%) | TEAE: Uterine Disorders NEC*: 2 (<1%) n (%) | TEAE: Uterine Fibroids*: 1 (<1%) n (%) | TEAE: Uterine Neoplasms Benign*: 1 (<1%) n (%) | TEAE: Uterine Neoplasms*: 2 (<1%) n (%) | TEAE: Uterine Polyp NOS*: 2 (<1%) n (%) | TEAE: Vaginal Cyst*: 1 (<1%) n (%) | TEAE: Vaginal Lesion*: 1 (<1%) n (%) | TEAE: Varicose Vein Ruptured: 2 (<1%) n (%) | TEAE: Varicose Veins Non-Site Specific: 2 (<1%) n (%) | TEAE: Vascular Auscultatory Investigations: 2 (<1%) n (%) | TEAE: Vascular Disorders: 21 (4%) n (%) | TEAE: Vascular Hypertensive Disorders NEC: 15 (3%) n (%) | TEAE: Vascular Hypotensive Disorders: 1 (<1%) n (%) | TEAE: Vascular Tests NEC (Incl Blood Pressure): 5 (<1%) n (%) | TEAE: Vasovagal Attack: 1 (<1%) n (%) | TEAE: Ventricular Arrhythmias and Cardiac Arrest: 2 (<1%) n (%) | TEAE: Ventricular Extrasystoles: 1 (<1%) n (%) | TEAE: Vertigo: 2 (<1%) n (%) | TEAE: Viral Infection NOS: 4 (<1%) n (%) | TEAE: Viral Infections NEC: 15 (3%) n (%) | TEAE: Visual Acuity Reduced: 1 (<1%) n (%) | TEAE: Vitreous Disorder NOS: 1 (<1%) n (%) | TEAE: Vomiting NOS: 18 (3%) n (%) | TEAE: Vulvovaginal Cysts and Neoplasms*: 1 (<1%) n (%) | TEAE: Vulvovaginal Dryness*: 2 (<1%) n (%) | TEAE: Vulvovaginal Signs and Symptoms*: 3 (<1%) n (%) | TEAE: Weight Decreased: 2 (<1%) n (%) | TEAE: Weight Increased: 6 (1%) n (%) | TEAE: Wheezing: 1 (<1%) n (%) | TEAE: White Blood Cell Analyses: 5 (<1%) n (%) | TEAE: White Blood Cell Count Decreased: 1 (<1%) n (%) | TEAE: White Blood Cells Urine Positive: 1 (<1%) n (%) | TEAE leading to permanent discontinuation: Abdominal Distension (N=536): 4 (<1%) n (%) | TEAE leading to permanent discontinuation: Abdominal Pain Aggravated (N=536): 1 (<1%) n (%) | TEAE leading to permanent discontinuation: Abdominal Pain Lower (N=536): 2 (<1%) n (%) | TEAE leading to permanent discontinuation: Abdominal Pain NOS (N=536): 11 (2%) n (%) | TEAE leading to permanent discontinuation: Abdominal Pain Upper (N=536): 4 (<1%) n (%) | TEAE leading to permanent discontinuation: Alanine Aminotransferase Increased (N=536): 1 (<1%) n (%) | TEAE leading to permanent discontinuation: Angina Pectoris (N=536): 1 (<1%) n (%) | TEAE leading to permanent discontinuation: Appendicitis (N=536): 1 (<1%) n (%) | TEAE leading to permanent discontinuation: Asthma Aggravated (N=536): 1 (<1%) n (%) | TEAE leading to permanent discontinuation: Asthma NOS (N=536): 1 (<1%) n (%) | TEAE leading to permanent discontinuation: Back Pain (N=536): 4 (<1%) n (%) | TEAE leading to permanent discontinuation: Bladder Prolapse (N=536): 1 (<1%) n (%) | TEAE leading to permanent discontinuation: Blood Bilirubin Increased (N=536): 1 (<1%) n (%) | TEAE leading to permanent discontinuation: Blood Pressure Increased (N=536): 1 (<1%) n (%) | TEAE leading to permanent discontinuation: Blood Urine Present (N=536): 1 (<1%) n (%) | TEAE leading to permanent discontinuation: Bone Neoplasm Malignant (N=536): 1 (<1%) n (%) | TEAE leading to permanent discontinuation: Cardiac Disorders (N=536): 1 (<1%) n (%) | TEAE leading to permanent discontinuation: Chest Discomfort (N=536): 1 (<1%) n (%) | TEAE leading to permanent discontinuation: Chest Pain (N=536): 1 (<1%) n (%) | TEAE leading to permanent discontinuation: Chest Wall Pain (N=536): 1 (<1%) n (%) | TEAE leading to permanent discontinuation: Colitis Ischaemic (N=536): 1 (<1%) n (%) | TEAE leading to permanent discontinuation: Constipation (N=536): 28 (5%) n (%) | TEAE leading to permanent discontinuation: Cough (N=536): 1 (<1%) n (%) | TEAE leading to permanent discontinuation: Dehydration (N=536): 1 (<1%) n (%) | TEAE leading to permanent discontinuation: Depression (N=536): 1 (<1%) n (%) | TEAE leading to permanent discontinuation: Diarrhoea Aggravated (N=536): 2 (<1%) n (%) | TEAE leading to permanent discontinuation: Diarrhoea Haemorrhagic (N=536): 1 (<1%) n (%) | TEAE leading to permanent discontinuation: Diarrhoea NOS (N=536): 6 (1%) n (%) | TEAE leading to permanent discontinuation: Dizziness (N=536): 2 (<1%) n (%)
